Experimental data reported in patent publication US20250171438A1 (Agios Pharmaceuticals, Inc., priority 2022, published 2025).

These compounds were tested against T1, human PAH with the R408W mutation (Homo sapiens, UniProt P00439, R408W) (assay: Cell Based Phenylalanine Flux Assay). Conditions: A375 cells expressing human R408W PAH; 24 hrs compound incubation; 13C-Tyrosine by LC-MS; average where tested multiple times; read-out: AC50.
T1 construct: expressed in transfected cells
T1 sequence (P00439 1-452 R408W): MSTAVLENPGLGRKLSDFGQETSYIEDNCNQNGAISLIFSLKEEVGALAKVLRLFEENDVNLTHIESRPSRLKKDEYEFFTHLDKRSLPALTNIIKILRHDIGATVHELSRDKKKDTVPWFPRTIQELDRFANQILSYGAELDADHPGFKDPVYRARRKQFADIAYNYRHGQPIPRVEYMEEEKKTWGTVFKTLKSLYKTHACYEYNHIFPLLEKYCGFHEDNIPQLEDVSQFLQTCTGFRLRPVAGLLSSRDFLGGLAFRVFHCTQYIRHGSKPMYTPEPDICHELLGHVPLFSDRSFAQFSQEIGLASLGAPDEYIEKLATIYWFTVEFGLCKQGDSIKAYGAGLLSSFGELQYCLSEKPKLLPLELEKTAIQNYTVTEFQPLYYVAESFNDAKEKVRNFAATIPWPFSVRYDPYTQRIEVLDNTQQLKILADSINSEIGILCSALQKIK

Row | AC50 [nM] | Compound
1 | 1000 to 5000 | Cc1nn(C)c(Cl)c1C(=O)N1CCc2[nH]cnc2[C@@H]1c1nc2c(F)cccc2s1 [Example 1741, (R)-(5-chloro-1,3-dimethyl-1H-pyrazol-4-yl)(4-(4-fluorobenzo[d]thiazol-2-yl)-6,7-dihydro-1H-imidazo[4,5-c]pyridin-5(4H)-yl)methanone]
2 | < 500 | Cc1nn(C)c(Cl)c1C(=O)N1CCc2[nH]cnc2[C@H]1c1nc2c(F)cccc2s1 [Example 1742]
3 | 500 to 1000 | Cn1ncc(C(=O)N2CCc3[nH]cnc3[C@H]2c2nc3c(F)cccc3s2)c1C(F)F [Example 1743, (S)-(5-(difluoromethyl)-1-methyl-1H-pyrazol-4-yl)(4-(4-fluorobenzo[d]thiazol-2-yl)-6,7-dihydro-1H-imidazo[4,5-c]pyridin-5(4H)-yl)methanone]
4 | 500 to 1000 | O=C(c1oc(-c2ccc(F)cn2)nc1C(F)F)N1CCc2[nH]cnc2[C@@H]1c1nc2ccccc2s1 [Example 1745, (R)-(4-(benzo[d]thiazol-2-yl)-6,7-dihydro-1H-imidazo[4,5-c]pyridin-5(4H)-yl)(4-(difluoromethyl)-2-(5-fluoropyridin-2-yl)oxazol-5-yl)methanone]
5 | < 500 | O=C(c1oc(-c2ccc(F)cn2)nc1C(F)F)N1CCc2[nH]cnc2[C@H]1c1nc2ccccc2s1 [Example 1746]
6 | 500 to 1000 | O=C(c1nnc(-c2ccccn2)o1)N1CCc2[nH]cnc2[C@@H]1c1nc2cc(F)ccc2s1 [Example 1747, (R)-(4-(5-fluorobenzo[d]thiazol-2-yl)-6,7-dihydro-1H-imidazo[4,5-c]pyridin-5(4H)-yl)(5-(pyridin-2-yl)-1,3,4-oxadiazol-2-yl)methanone]
7 | < 500 | O=C(c1nnc(-c2ccccn2)o1)N1CCc2[nH]cnc2[C@H]1c1nc2cc(F)ccc2s1 [Example 1748, (S)-(4-(5-fluorobenzo[d]thiazol-2-yl)-6,7-dihydro-1H-imidazo[4,5-c]pyridin-5(4H)-yl)(5-(pyridin-2-yl)-1,3,4-oxadiazol-2-yl)methanone]
8 | 1000 to 5000 | C[C@@H]1CN(C(=O)c2nnc(-c3cnn(C)c3)o2)[C@@H](c2nc3ccccc3s2)c2nc[nH]c21 [Example 1749, ((4R,7R)-4-(benzo[d]thiazol-2-yl)-7-methyl-6,7-dihydro-1H-imidazo[4,5-c]pyridin-5(4H)-yl)(5-(1-methyl-1H-pyrazol-4-yl)-1,3,4-oxadiazol-2-yl)methanone]
9 | 500 to 1000 | C[C@@H]1CN(C(=O)c2nnc(-c3cnn(C)c3)o2)[C@H](c2nc3ccccc3s2)c2nc[nH]c21 [Example 1750, ((4S,7R)-4-(benzo[d]thiazol-2-yl)-7-methyl-6,7-dihydro-1H-imidazo[4,5-c]pyridin-5(4H)-yl)(5-(1-methyl-1H-pyrazol-4-yl)-1,3,4-oxadiazol-2-yl)methanone]
10 | > 5000 | C[C@H]1CN(C(=O)c2nnc(-c3cnn(C)c3)o2)[C@@H](c2nc3ccccc3s2)c2nc[nH]c21 [Example 1751, ((4R,7S)-4-(benzo[d]thiazol-2-yl)-7-methyl-6,7-dihydro-1H-imidazo[4,5-c]pyridin-5(4H)-yl)(5-(1-methyl-1H-pyrazol-4-yl)-1,3,4-oxadiazol-2-yl)methanone]
11 | 500 to 1000 | C[C@H]1CN(C(=O)c2nnc(-c3cnn(C)c3)o2)[C@H](c2nc3ccccc3s2)c2nc[nH]c21 [Example 1752, ((4S,7S)-4-(benzo[d]thiazol-2-yl)-7-methyl-6,7-dihydro-1H-imidazo[4,5-c]pyridin-5(4H)-yl)(5-(1-methyl-1H-pyrazol-4-yl)-1,3,4-oxadiazol-2-yl)methanone]
12 | 1000 to 5000 | C[C@@H]1CN(C(=O)c2nnc(-c3ccc(F)cn3)o2)[C@@H](c2nc3ccccc3s2)c2nc[nH]c21 [Example 1753, ((4R,7R)-4-(benzo[d]thiazol-2-yl)-7-methyl-6,7-dihydro-1H-imidazo[4,5-c]pyridin-5(4H)-yl)(5-(5-fluoropyridin-2-yl)-1,3,4-oxadiazol-2-yl)methanone]
13 | 500 to 1000 | C[C@@H]1CN(C(=O)c2nnc(-c3ccc(F)cn3)o2)[C@H](c2nc3ccccc3s2)c2nc[nH]c21 [Example 1754, ((4S,7R)-4-(benzo[d]thiazol-2-yl)-7-methyl-6,7-dihydro-1H-imidazo[4,5-c]pyridin-5(4H)-yl)(5-(5-fluoropyridin-2-yl)-1,3,4-oxadiazol-2-yl)methanone]
14 | > 5000 | C[C@H]1CN(C(=O)c2nnc(-c3ccc(F)cn3)o2)[C@@H](c2nc3ccccc3s2)c2nc[nH]c21 [Example 1755, ((4R,7S)-4-(benzo[d]thiazol-2-yl)-7-methyl-6,7-dihydro-1H-imidazo[4,5-c]pyridin-5(4H)-yl)(5-(5-fluoropyridin-2-yl)-1,3,4-oxadiazol-2-yl)methanone]
15 | 1000 to 5000 | C[C@H]1CN(C(=O)c2nnc(-c3ccc(F)cn3)o2)[C@H](c2nc3ccccc3s2)c2nc[nH]c21 [Example 1756, ((4S,7S)-4-(benzo[d]thiazol-2-yl)-7-methyl-6,7-dihydro-1H-imidazo[4,5-c]pyridin-5(4H)-yl)(5-(5-fluoropyridin-2-yl)-1,3,4-oxadiazol-2-yl)methanone]
16 | 500 to 1000 | O=C(c1ccnn1-c1ccccn1)N1CCc2[nH]cnc2[C@H]1c1nc2c(F)cccc2s1 [Example 1757, (S)-(4-(4-fluorobenzo[d]thiazol-2-yl)-6,7-dihydro-1H-imidazo[4,5-c]pyridin-5(4H)-yl)(1-(pyridin-2-yl)-1H-pyrazol-5-yl)methanone]
17 | 1000 to 5000 | Cc1nc(Br)c(C(=O)N2CCc3[nH]cnc3[C@@H]2c2nc3c(F)cccc3s2)o1 [Example 1759, (R)-(4-bromo-2-methyloxazol-5-yl)(4-(4-fluorobenzo[d]thiazol-2-yl)-6,7-dihydro-1H-imidazo[4,5-c]pyridin-5(4H)-yl)methanone]
18 | < 500 | Cc1nc(Br)c(C(=O)N2CCc3[nH]cnc3[C@H]2c2nc3c(F)cccc3s2)o1 [Example 1760]
19 | 500 to 1000 | CN(C)CCn1nccc1C(=O)N1CCc2[nH]cnc2[C@H]1c1nc2c(F)cccc2s1 [Example 1761, (S)-(1-(2-(dimethylamino)ethyl)-1H-pyrazol-5-yl)(4-(4-fluorobenzo[d]thiazol-2-yl)-6,7-dihydro-1H-imidazo[4,5-c]pyridin-5(4H)-yl)methanone]
20 | 1000 to 5000 | CN(C)CCn1nccc1C(=O)N1CCc2[nH]cnc2[C@@H]1c1nc2c(F)cccc2s1 [Example 1762, (R)-(1-(2-(dimethylamino)ethyl)-1H-pyrazol-5-yl)(4-(4-fluorobenzo[d]thiazol-2-yl)-6,7-dihydro-1H-imidazo[4,5-c]pyridin-5(4H)-yl)methanone]
21 | 1000 to 5000 | O=C(c1cn(CC(F)(F)F)nc1Cl)N1CCc2[nH]cnc2[C@@H]1c1nc2c(F)cccc2s1 [Example 1763, (R)-(3-chloro-1-(2,2,2-trifluoroethyl)-1H-pyrazol-4-yl)(4-(4-fluorobenzo[d]thiazol-2-yl)-6,7-dihydro-1H-imidazo[4,5-c]pyridin-5(4H)-yl)methanone]
22 | 500 to 1000 | O=C(c1cn(CC(F)(F)F)nc1Cl)N1CCc2[nH]cnc2[C@H]1c1nc2c(F)cccc2s1 [Example 1764, (S)-(3-chloro-1-(2,2,2-trifluoroethyl)-1H-pyrazol-4-yl)(4-(4-fluorobenzo[d]thiazol-2-yl)-6,7-dihydro-1H-imidazo[4,5-c]pyridin-5(4H)-yl)methanone]
23 | 500 to 1000 | O=C(c1cnn(-c2ccccn2)c1Cl)N1CCc2[nH]cnc2[C@H]1c1nc2c(F)cccc2s1 [Example 1765]
24 | 1000 to 5000 | O=C(c1cnn(-c2ccccn2)c1Cl)N1CCc2[nH]cnc2[C@@H]1c1nc2c(F)cccc2s1 [Example 1766, (R)-(5-chloro-1-(pyridin-2-yl)-1H-pyrazol-4-yl)(4-(4-fluorobenzo[d]thiazol-2-yl)-6,7-dihydro-1H-imidazo[4,5-c]pyridin-5(4H)-yl)methanone]
25 | 1000 to 5000 | O=C(c1nnc(-c2ccc(C(F)(F)F)cc2)o1)N1CCc2[nH]cnc2[C@@H]1c1nc2ccccc2s1 [Example 1767, (R)-(4-(benzo[d]thiazol-2-yl)-6,7-dihydro-1H-imidazo[4,5-c]pyridin-5(4H)-yl)(5-(4-(trifluoromethyl)phenyl)-1,3,4-oxadiazol-2-yl)methanone]
26 | 500 to 1000 | O=C(c1nnc(-c2ccc(C(F)(F)F)cc2)o1)N1CCc2[nH]cnc2[C@H]1c1nc2ccccc2s1 [Example 1768]
27 | 500 to 1000 | O=C(c1cn(-c2ccccn2)nc1Cl)N1CCc2[nH]cnc2[C@H]1c1nc2c(F)cccc2s1 [Example 1769]
28 | 1000 to 5000 | O=C(c1cn(-c2ccccn2)nc1Cl)N1CCc2[nH]cnc2[C@@H]1c1nc2c(F)cccc2s1 [Example 1770, (R)-(3-chloro-1-(pyridin-2-yl)-1H-pyrazol-4-yl)(4-(4-fluorobenzo[d]thiazol-2-yl)-6,7-dihydro-1H-imidazo[4,5-c]pyridin-5(4H)-yl)methanone]
29 | < 500 | O=C(c1oc(OCCC(F)(F)F)nc1C(F)F)N1CCc2[nH]cnc2[C@@H]1c1nc2ccccc2s1 [Example 1771, (R)-(4-(benzo[d]thiazol-2-yl)-6,7-dihydro-1H-imidazo[4,5-c]pyridin-5(4H)-yl)(4-(difluoromethyl)-2-(3,3,3-trifluoropropoxy)oxazol-5-yl)methanone]
30 | < 500 | O=C(c1oc(OCCC(F)(F)F)nc1C(F)F)N1CCc2[nH]cnc2[C@H]1c1nc2ccccc2s1 [Example 1772]
